Laboratory results from ChEMBL document CHEMBL1142500, “'Reverse' alpha-ketoamide-based p38 MAP kinase inhibitors” (Bioorg Med Chem Lett, 2008).
pIC50: −log10 of the molar value.

Columns and labels:
[1] = tested on: THP-1; experiment: Inhibition of LPS-induced TNFalpha production in human THP1 cells; type: functional, cell-based
[2] = molecular target: T1, Mitogen-activated protein kinase 14 (Homo sapiens, UniProt Q16539); experiment: Inhibition of human p38alpha
[3] = Tmax in rat at 30 mg/kg, po; type: ADME, organism-based; design: dose 30 mg/kg, route oral; details: in vivo
[4] = Oral bioavailability in rat at 30 mg/kg; type: ADME, organism-based; details: in vivo
[5] = molecular target: T1, Mitogen-activated protein kinase 14; experiment: Inhibition of human p38alpha phosphorylation
[6] = Cmax in rat at 30 mg/kg, po; type: ADME, organism-based; design: dose 30 mg/kg, route oral; details: in vivo
[7] = Half life in rat at 30 mg/kg, po; type: ADME, organism-based; design: dose 30 mg/kg, route oral; details: in vivo
[8] = AUC in rat at 30 mg/kg, po; type: ADME, organism-based; design: dose 30 mg/kg, route oral; details: plasma
[9] = Clearance in rat at 10 mg/kg, iv; type: ADME, organism-based; design: dose 10 mg/kg, route intravenous; details: in vivo
[10] = Volume of distribution at steady state in rat at 10 mg/kg, iv; type: ADME, organism-based; design: dose 10 mg/kg, route intravenous; details: in vivo, read-out: Vdss

T1 sequence (Q16539 whole entry): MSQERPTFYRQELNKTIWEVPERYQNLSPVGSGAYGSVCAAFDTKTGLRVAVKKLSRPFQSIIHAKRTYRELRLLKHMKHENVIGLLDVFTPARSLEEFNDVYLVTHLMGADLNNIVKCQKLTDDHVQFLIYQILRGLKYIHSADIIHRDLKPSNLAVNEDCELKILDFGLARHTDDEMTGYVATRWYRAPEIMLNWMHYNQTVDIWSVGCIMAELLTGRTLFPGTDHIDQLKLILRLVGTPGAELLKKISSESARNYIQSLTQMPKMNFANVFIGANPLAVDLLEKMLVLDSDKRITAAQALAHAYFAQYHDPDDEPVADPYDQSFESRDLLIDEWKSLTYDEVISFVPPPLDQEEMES

Row | SMILES | pIC50 [1] | pIC50 [2] | pIC50 [5] | other results
1 | Cn1nc(C(C)(C)C)cc1NC(=O)C(=O)c1ccc(-c2ccc(CN3CCOCC3)nc2)c2ccccc12 | 6.07 | – | – | –
2 | Cc1oc(C(C)(C)C)cc1C(=O)C(=O)Nc1ccc(Nc2ccncn2)c2ccccc12 | 7.23 | – | – | –
3 | Cc1ccc(-n2nc(C(C)(C)C)cc2/C(=C/O)C(=O)Nc2ccc(OCCN3CCOCC3)c3ccccc23)cc1 | 5.48 | – | – | –
4 | CC(C)(C)c1cc(C(=O)C(=O)Nc2ccc(OCCN3CCOCC3)c3ccccc23)n(-c2ccc(F)c(F)c2)n1 | 6.74 | – | – | –
5 | Cc1cccc(-n2nc(C(C)(C)C)cc2/C(=N/O)C(=O)Nc2ccc(OCCN3CCOCC3)c3ccccc23)c1 | 7.31 | 7.23 | 7.00 | Tmax [3]: 1.5 h; bioavailability [4]: 54%; Cmax [6]: 4000 ng/mL; half-life [7]: 2.9 h; AUC [8]: 26000 ng·h/mL; clearance [9]: 10.2 mL/min/kg; Vd [10]: 1.5 L/kg
6 | Cn1nc(C(C)(C)C)cc1C(=O)C(=O)Nc1ccc(OCCN2CCOCC2)c2ccccc12 | 7.15 | 7.85 | 7.15 | –
7 | Cc1oc(C(C)(C)C)cc1C(=O)C(=O)Nc1ccc(OCCN2CCOCC2)c2ccccc12 | 7.21 | 7.66 | 6.57 | –
8 | Cn1nc(C(C)(C)C)cc1NC(=O)C(=O)c1ccc(OCCN2CCOCC2)c2ccccc12 | 6.36 | – | – | –
9 | Cc1cccc(-n2nc(C(C)(C)C)cc2C(=O)C(=O)Nc2ccc(OCCN3CCOCC3)c3ccccc23)c1 | 6.55 | – | – | –
10 | Cc1oc(C(C)(C)C)cc1C(=O)C(=O)Nc1ccc(-c2ccc(CN3CCOCC3)nc2)c2ccccc12 | 8.05 | 7.23 | 7.70 | –
11 | Cc1ccc(-n2nc(C(C)(C)C)cc2C(=O)C(=O)Nc2ccc(OCCN3CCOCC3)c3ccccc23)cc1 | 6.48 | – | – | –
12 | Cc1oc(C(C)(C)C)cc1C(=O)C(=O)Nc1ccc(Nc2ncccn2)c2ccccc12 | 6.34 | – | – | –
